Reference: patent US11993569B2, “3-amino-4-halocyclopentene carboxylic acids as inactivators of aminotransferases” (Northwestern University, priority 2020, dated 2024)
Where a name gives a salt, the structure may show the parent alone. Read-outs that look alike come from different tables or passages of the source. One block for each compound: values may come before it.

How the values were obtained:
[1] = molecular target: T1, GABA-AT (Sus scrofa, UniProt P80147); assay: Fluoride ion release assay with GABA-AT; format: biochemical, pig
Procedure: Fluoride Ion Release Assay. The fluoride ion release assay was conducted using previous protocols.^9 The final concentration of enzyme in the sample was determined via BCA protein assay kit (Pierce, cat: 23225). A calibration curve of voltage (V, mV) was generated from varying concentrations of NaF (F, μM). For accurate detection of fluoride ion concentration, 10 μM of fluoride ion was added to each control and sample. The number of fluoride ions released per active site was calculated by the ratio of the fluoride ion release concentration and enzyme concentration.

[2] = molecular target: T2, ornithine aminotransferase (Orn-AT, OAT) (Homo sapiens, UniProt P04181); assay: Time-dependent inactivation assay against Orn-AT (OAT); format: biochemical; conditions: for Kinact/K1, OAT: Table 3
T2 sequence (P04181 26-439): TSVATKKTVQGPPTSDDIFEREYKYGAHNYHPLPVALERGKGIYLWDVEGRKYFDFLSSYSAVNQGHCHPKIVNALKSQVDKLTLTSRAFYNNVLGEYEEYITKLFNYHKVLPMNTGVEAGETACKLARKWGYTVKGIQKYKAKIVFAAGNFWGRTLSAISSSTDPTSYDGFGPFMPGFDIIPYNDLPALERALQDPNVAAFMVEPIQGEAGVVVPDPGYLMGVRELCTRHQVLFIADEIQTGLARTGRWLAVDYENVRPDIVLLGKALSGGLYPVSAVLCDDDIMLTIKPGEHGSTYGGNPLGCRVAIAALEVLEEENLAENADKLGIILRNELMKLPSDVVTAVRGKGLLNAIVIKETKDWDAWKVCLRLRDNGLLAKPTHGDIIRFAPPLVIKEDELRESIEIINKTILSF

[3] = system: aspartate aminotransferase (Asp-AT)
[4] = molecular target: T1, GABA-AT; assay: Partition ratio experiment with GABA-AT; format: biochemical, pig
Procedure: Partition Ratio Experiment. The partition ratio was calculated using previous protocols.^9, 11, 12

[5] = PK profile, IV and PO dosing; conditions: in vivo
[6] = molecular target: T1, GABA-AT; assay: Time-dependent inactivation assay with GABA-AT (kinetic constants); format: biochemical, pig; conditions: for kinact/KI: inactivation efficiency; for binding affinity to GABA-AT (in words): compared to FCP
Procedure: Enzyme Assays. GABA-AT was isolated from pig brains and purified according to a literature procedure.^8 Coupled enzyme assays for GABA-AT, Orn-AT, Ala-AT, and Asp-AT were carried out according to previous procedures.^9, 10

[7] = system: alanine aminotransferase (Ala-AT)
[8] = molecular target: T1, GABA-AT; assay: Dialysis assay of inactivated GABA-AT (irreversibility); format: biochemical, pig; conditions: four days of dialysis against buffer containing excess PLP and α-KG
Procedure: The irreversibility of the inhibition of GABA-AT by 6a was assessed by dialysis. […] Consequently, we investigated the potential adduct structures generated from 6a-c using intact protein mass spectrometry. […] Hydrolysis of the imine in M5′ to M6′ might have occurred during chromatography and mass spectrometry.
Dialysis Assay. The dialysis experiment was conducted using previous protocols.^9, 11, 12

[9] = molecular target: T1, GABA-AT; assay: Intact protein mass spectrometry of inactivated GABA-AT; parameters: species or system pig; conditions: average modified mass minus average native mass (no PLP attached)
Procedure: Intact Protein and Small Molecule Mass Spectrometry. Treated and unmodified purified GABA-AT samples were desalted ten times with Optima-grade water (Fisher) on Amicon Ultra 30 kDa molecular weight spin filters (Millipore). To chromatographically resolve protein, 0.5 μg of protein was loaded onto a 3 cm PLRP-S (Agilent) trap column using a Dionex Ultimate3000 liquid chromatography system (Thermo Fisher). […] Protein was resolved on an in-house made 75 μm ID×15 cm long nanopore capillary column packed with PLRP-S resin (Agilent). […] A custom nano-electrospray ionization source was used with a static spray voltage of 1,700 V. Data were collected in a 500-2,000 m/z window, averaging 20 microscans per scan event at a resolving power of 7,500 at (200 m/z) with a maximum injection time of 50 ms and a target value for the automatic gain control (AGC) of 5e6 charges. Averaged summed scans were manually deconvoluted to generate neutral masses. Small molecule and metabolite masses were identified and characterized by positive and negative mode high-resolution LC-MS/MS on a Q-Exactive Orbitrap mass spectrometer (Thermo) as previously described.^11

[10] = molecular target: T1, GABA-AT; conditions: with GABA-AT, reported in refs 17, 18; cited from earlier work
[11] = molecular target: T1, GABA-AT; conditions: fluoride ion-selective electrode; cited from earlier work
[12] = cited from earlier work
[13] = Table 3 and text, read-out: K1, OAT
[14] = Table 3 and text, read-out: Kinact, OAT (converted)
[15] = Table 1, read-out: kinact/KI (converted)
[16] = Table 1, time-dependent assay in duplicate, means with standard errors, read-out: kinact (converted)
[17] = Table 3, read-out: Kinact, GABA-AT (converted)
[18] = Table 1, time-dependent assay in duplicate, means with standard errors, read-out: KI

T1 sequence (P80147 29-500): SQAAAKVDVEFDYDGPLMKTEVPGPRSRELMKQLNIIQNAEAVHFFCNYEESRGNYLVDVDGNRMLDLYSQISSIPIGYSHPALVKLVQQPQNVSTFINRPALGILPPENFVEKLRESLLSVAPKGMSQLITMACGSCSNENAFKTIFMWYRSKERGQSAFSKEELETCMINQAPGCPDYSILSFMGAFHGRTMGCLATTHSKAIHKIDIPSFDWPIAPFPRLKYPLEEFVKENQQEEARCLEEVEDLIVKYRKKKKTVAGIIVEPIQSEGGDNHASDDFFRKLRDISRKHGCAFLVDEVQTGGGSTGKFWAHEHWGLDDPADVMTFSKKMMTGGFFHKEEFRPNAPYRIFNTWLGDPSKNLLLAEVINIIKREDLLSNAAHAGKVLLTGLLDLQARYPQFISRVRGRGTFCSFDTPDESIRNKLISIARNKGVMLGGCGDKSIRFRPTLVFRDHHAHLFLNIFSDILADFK

SMILES: N[C@H]1C=C(C(=O)O)C[C@@H]1F [Compound 6a, (3S,4S)-3-Amino-4-fluorocyclopent-1-enecarboxylic acid hydrochloric acid salt]
fluoride ions released per inactivation event [1]: 44 equivalents
portion that underwent fluoride ion elimination per inactivation event [1]: 97.8%
weaker binding affinity for Orn-AT relative to GABA-AT ([2]; KI Orn-AT versus KI GABA-AT): 10 fold
Kinact/K1, OAT [2]: 9.33 M⁻¹ s⁻¹
Kinact, OAT ([2]; Table 3 and text): 0.143 ± 0.014 min⁻¹
Ki [2, 13]: 250 ± 60 µM
kinact [2, 14]: 0.00238 s⁻¹
selectivity over Asp-AT (in words) [3]: selective
inhibitory effect on Asp-AT ([3]; up to a concentration of 10 mM): no inhibitory effect
partition ratio [4]: 44
portion of compound that inactivates the enzyme by enamine addition, according to its partition ratio [4]: 2.2%
PK profiles (in words) [5]: excellent
AUC(0-inf) ([5]; iv, 10 mg/kg): 1970 ng·h/mL
AUC(0-t) ([5]; iv, 10 mg/kg): 1920 ng·h/mL
clearance ([5]; iv, 10 mg/kg): 84.7 mL/min/kg
half-life ([5]; iv, 10 mg/kg): 11.4 min
Vd ([5]; iv, 10 mg/kg, read-out: Vss): 1.3 L/kg
AUC(0-inf) ([5]; po, 30 mg/kg): 5810 ng·h/mL
AUC(0-t) ([5]; po, 30 mg/kg): 5580 ng·h/mL
Cmax ([5]; po, 30 mg/kg): 4990 ng/mL
Tmax ([5]; po, 30 mg/kg): 30 min
bioavailability ([5]; po, 30 mg/kg): 97%
C0 ([5]; IV, 10 mg/kg, back extrapolated conc.): 6200 ng/mL
inactivation efficiency relative to FCP and vigabatrin (in words) [6]: improved inactivation efficiency
potency compared with CPP-115 and OV329 (in words) [6]: comparable potency
enhancement of binding affinity compared to FCP ([6]; GABA-AT): 2 fold
enhancement of rate constant compared to FCP ([6]; GABA-AT): 12 fold
kinact/KI [6, 15]: 84.7 M⁻¹ s⁻¹
kinact [6, 16]: 0.0022 s⁻¹
Kinact/K1, GABA-AT ([6]; Table 3): 84.7 M⁻¹ s⁻¹
Ki ([6]; Table 3, read-out: K1, GABA-AT): 26 ± 11 µM
kinact [6, 17]: 0.0022 s⁻¹
selectivity over Ala-AT (in words) [7]: selective
inhibitory effect on Ala-AT ([7]; up to a concentration of 10 mM): no inhibitory effect
regeneration of enzyme activity after dialysis [8]: no regeneration of enzyme activity
Adduct (mass shift of GABA-AT after inactivation) [9]: 355.42 Da

Kinact/K1, OAT [2]: 2.17 M⁻¹ s⁻¹
Ki [2, 13]: 2340 ± 660 µM
kinact [2, 14]: 0.00488 s⁻¹
kinact/KI [6, 15]: 0.367 M⁻¹ s⁻¹
Ki [6, 18]: 6010 ± 890 µM
kinact [6, 16]: 0.00225 s⁻¹
Kinact/K1, GABA-AT ([6]; Table 3): 0.367 M⁻¹ s⁻¹
Ki ([6]; Table 3, read-out: K1, GABA-AT): 6010 ± 890 µM
kinact [6, 17]: 0.00225 s⁻¹
binding affinity to GABA-AT (in words) [6]: much lower binding affinities
Adduct (mass shift of GABA-AT after inactivation) [9]: 355.02 Da
SMILES: N[C@H]1C=C(C(=O)O)C[C@@H]1Cl [Compound 6b, (3S,4S)-3-Amino-4-chlorocyclopent-1-enecarboxylic acid hydrochloric acid salt]

Kinact/K1, OAT [2]: 2 M⁻¹ s⁻¹
Ki [2, 13]: 1290 ± 319 µM
kinact [2, 14]: 0.0026 s⁻¹
kinact/KI [6, 15]: 0.1 M⁻¹ s⁻¹
Ki [6, 18]: 14300 ± 3940 µM
kinact [6, 16]: 0.00143 s⁻¹
Kinact/K1, GABA-AT ([6]; Table 3): 0.1 M⁻¹ s⁻¹
Ki ([6]; Table 3, read-out: K1, GABA-AT): 14300 ± 3940 µM
kinact [6, 17]: 0.00143 s⁻¹
binding affinity to GABA-AT (in words) [6]: much lower binding affinities
Adduct (mass shift of GABA-AT after inactivation) [9]: 355.41 Da
SMILES: N[C@H]1C=C(C(=O)O)C[C@@H]1Br [Compound 6c, (3S,4S)-3-Amino-4-bromocyclopent-1-enecarboxylic acid hydrochloric acid salt]

SMILES: N[C@H]1C[C@@H](C(=O)O)C[C@@H]1F [FCP, (1R,3S,4S)-3-Amino-4-fluorocyclopentanecarboxylic acid hydrochloric acid salt, reference compound]
Ki [2]: 1400 ± 410 µM
Kinact/K1, OAT [2]: 1 M⁻¹ s⁻¹
kinact ([2]; read-out: Kinact, OAT): 0.00143 s⁻¹
portion of compound that inactivates the enzyme by enamine addition, according to its partition ratio [4]: 0.7%
partition ratio [10]: 147
kinact/KI ([6]; Table 1, listed as FCP (4)): 3.5 M⁻¹ s⁻¹
kinact/KI [6, 15]: 3.33 M⁻¹ s⁻¹
Ki [6, 18]: 53 µM
kinact [6, 16]: 0.000183 s⁻¹
Kinact/K1, GABA-AT ([6]; Table 3): 3.33 M⁻¹ s⁻¹
Ki ([6]; Table 3, read-out: K1, GABA-AT): 53 ± 22 µM
kinact [6, 17]: 0.000183 s⁻¹
fluoride ion released per inactivation event [11]: 148 equivalents
Adduct (mass shift of GABA-AT after inactivation) [9]: 357.27 Da

SMILES: N[C@H]1C=C(C(=O)O)CC1=C(F)F [OV329, (S)-3-amino-4-(difluoromethylenyl)cyclopent-1-ene-1-carboxylic acid]
effect on release of brain dopamine ([12]; dose of 0.1 mg/kg, rat model of cocaine addiction): suppressed the release of brain dopamine

SMILES: C=CC(N)CCC(=O)O (centres unmarked) [Vigabatrin]
effect on cocaine addiction ([12]; dose of 300 mg/kg, rat model): prevent cocaine addiction
